{
  "source": "patent US10428142B2",
  "about": "“Multipartite signaling proteins and uses thereof” (BLUEBIRD BIO, INC., priority 2013, dated 2019)",
  "key": {"K562-CD19 cells [1]": {"test_system": "K562-CD19 cells", "details": "for elimination of K562-CD19 cells by bridging factor: rapamycin 10 nM or AP21967 100 nM, 5:1", "description": "The transduced T cells were then co-incubated with about a 50:50 mixture of the K562 target cells expressing either CD19 (K562-CD19) or CD20 (K562-CD20) to evaluate antigen-specific cytotoxicity. […] The DARIC antigen binding component includes a CD19 antigen binding scFv domain and a FKBP12 multimerization domain, which was linked to a mCherry fluorescent protein.\nIn addition, two distinct T cell populations were mixed, wherein one population was expressing a DARIC antigen binding component and the other population was expressing a DARIC signaling component."}, "K562-CD19 target cells [2]": {"test_system": "K562-CD19 target cells", "method": "(§1) A broad range of bridging factor (rapamycin and everolimus) concentrations were tested to determine whether a DARIC system can function at clinically relevant concentrations. As in the Example 4, primary human T cells were isolated, activated, and then transduced with lentiviral vectors expressing a DARIC binding component (SEQ ID NOS.:1, 4, 7) and a DARIC signaling component (SEQ ID NOS.:15, 19, 23). The DARIC expressing T cells were then co-incubated with 50:50 mixtures of the K562-CD19 and K562-CD20 target cells to evaluate antigen-specific cytotoxicity. The overall ratio of T cells to K562 cells was 5:1 in all samples."}, "K562-CD19 target cells [3]": {"test_system": "K562-CD19 target cells", "test": "Titration of bridging factors, DARIC T cell cytotoxicity", "details": "DARIC expressing T cells, 5:1, 50:50 K562-CD19:K562-CD20", "method": "as §1"}, "K562-CD19 cells [4]": {"test_system": "K562-CD19 cells", "test": "Deactivation of DARIC cytotoxicity using an anti-bridging factor", "assay_type": "cell-based, human", "method": "Deactivation of the DARIC system by the addition of a pharmacological agent that competes for binding to one of the multimerization domains was tested. Primary human T cells expressing either a traditional CD19 targeting CAR or primary human T cells expressing the CD19 targeting DARIC components (SEQ ID NO.:66) were co-incubated with 50:50 mixtures of K562-CD19 and K562-CD20 cells."}},
  "note": "Where two headings read alike, the source gives them in different places.",
  "data": [
    {"compound": "CO[C@H]1[C@@H](O)[C@H](C)C[C@H](C)/C=C/C=C/C=C(\\C)[C@@H](c2c[nH]c3c(C)cccc23)C[C@@H]2CC[C@@H](C)[C@@](O)(O2)C(=O)C(=O)N2CCCC[C@H]2C(=O)O[C@H]([C@H](C)C[C@@H]2CC[C@@H](O)[C@H](OC)C2)C[C@H](O)[C@H](C)/C=C(\\C)[C@H]1O", "note": "[AP21967, C-16-(S)-7-methylindolerapamycin]", "values": [
      {"measurement": "elimination of K562-CD19 cells by bridging factor", "setting": "K562-CD19 cells [1]; T cells with CD19 scFv-FKBP12 binding component and FRB (2021-2113) T2098L signaling component", "result": "elimination of the CD19 expressing K562 cells"},
      {"measurement": "elimination of K562-CD19 cells by bridging factor", "setting": "K562-CD19 cells [1]; T cells with CD19 scFv-FKBP12 binding component and FRB signaling component", "result": "no effect on cell survival"}
    ]},
    {"compound": "CO[C@H]1C[C@@H]2CC[C@@H](C)[C@@](O)(O2)C(=O)C(=O)N2CCCC[C@H]2C(=O)O[C@H]([C@H](C)C[C@@H]2CC[C@@H](OCCO)[C@H](OC)C2)CC(=O)[C@H](C)/C=C(\\C)[C@@H](O)[C@@H](OC)C(=O)[C@H](C)C[C@H](C)/C=C/C=C/C=C/1C", "note": "[everolimus]", "values": [
      {"measurement": "cytotoxicity responses over bridging factor concentration", "setting": "K562-CD19 target cells [2]", "result": "maintained to sub-nanomolar drug concentrations"}
    ]},
    {"compound": "CO[C@H]1C[C@@H]2CC[C@@H](C)[C@@](O)(O2)C(=O)C(=O)N2CCCC[C@H]2C(=O)O[C@H]([C@H](C)C[C@@H]2CC[C@@H](O)[C@H](OC)C2)CC(=O)[C@H](C)/C=C(\\C)[C@@H](O)[C@@H](OC)C(=O)[C@H](C)C[C@H](C)/C=C/C=C/C=C/1C", "note": "[rapamycin]", "values": [
      {"measurement": "cytotoxicity responses over bridging factor concentration", "setting": "K562-CD19 target cells [3]", "result": "maintained to sub-nanomolar drug concentrations"},
      {"measurement": "cytotoxicity by bridging factor", "setting": "K562-CD19 cells [1]; mixed T cell populations, one expressing the binding component, the other the signaling component", "result": "cytotoxicity response against K562-CD19 cells"}
    ]},
    {"compound": "C=CC[C@@H]1/C=C(\\C)C[C@H](C)C[C@H](OC)[C@H]2O[C@@](O)(C(=O)C(=O)N3CCCC[C@H]3C(=O)O[C@H](/C(C)=C/[C@@H]3CC[C@@H](O)[C@H](OC)C3)[C@H](C)[C@@H](O)CC1=O)[C@H](C)C[C@@H]2OC", "note": "[FK506]", "values": [
      {"measurement": "reduction in antigen specific cytotoxicity when added", "setting": "K562-CD19 cells [4]; CD19 targeting CAR T cells", "result": "minimal reduction"},
      {"measurement": "reduction in antigen specific cytotoxicity when added", "setting": "K562-CD19 cells [4]; CD19 targeting DARIC T cells with rapamycin", "result": "marked reduction"}
    ]}
  ]
}
